Test results as given in US20040029886A1, “Dihalopropene compounds, processes for their preparation, compositions comprising them and their use as pesticides” (priority 2001, published 2004).

Columns and labels:
Assay type in all cases: in vivo
Parameters in all cases: key: compounds are considered to be active when, at a concentration of 500 ppm or less, their action on the harmful organisms is 50% or more
[1] = test system: L2 larvae of the Egyptian cotton leaf worm (Spodoptera littoralis); experiment: Example D: L2 larvae of Egyptian cotton leaf worm, Petri dish with culture medium; conditions: 500 ppm or less, after 6 days
Description: (§1) In Examples A to L below, compounds are considered to be active when, at a concentration of 500 ppm or less, their action on the harmful organisms is 50% or more.
A Petri dish whose bottom was covered with filter paper and which contained about 5 ml of culture medium was prepared. Five L2 larvae of the Egyptian cotton leaf worm (Spodoptera littoralis) were counted into small beakers. 200 μl of an aqueous solution of the formulated preparation to be examined were pipetted into the beaker. The treated larvae were then poured into the Petri dish, and a further 200 μl of the aqueous solution were distributed over the culture medium. The Petri dish was closed and then stored at about 25° C. in a climatized chamber. After 6 days of storage, the effect of the preparation on the larvae (mortality) was determined. The following examples were active: Nos. 27, 28, 29, 39, 43, 45, 59.

[2] = test system: L2 larvae of the sugar beet armyworm (Spodoptera exigua); experiment: Example I: sugar beet armyworm L2 larvae on sprayed cotton leaves; conditions: 500 ppm or less, after 4 days
Description: as §1
Cotton plants were sprayed with an aqueous solution of the formulated preparation to be examined. After drying, leaves were cut off, placed into a Petri dish and populated with 5 L2 larvae of the sugar beet armyworm (Spodoptera exigua). After 4 days of storage at about 23° C., the effect of the preparation on the larvae (mortality) was determined. The following examples were active: Nos. 27, 28, 45, 59.

[3] = test system: L1 larvae of the codling moth (Carpocapsa pomonella); experiment: Example J: codling moth L1 larvae on treated culture medium; conditions: 500 ppm or less, after 14 days
Description: as §1
Culture medium was mixed with an aqueous solution of the formulated preparation to be examined and populated with 10 L1 larvae of the codling moth (Carpocapsa pomonella). After 14 days of storage at about 23° C., the effect of the preparation on the larvae (mortality) was determined. The following examples were active: Nos. 28, 59.

[4] = test system: larvae of the diamondback moth (Plutella xylostella); experiment: Example L: diamondback moth larvae on sprayed cabbage leaf; conditions: 500 ppm or less, after 4 days
Description: as §1
A cabbage leaf was sprayed with an aqueous solution of the formulated preparation to be examined. After drying, the treated leaf was populated with larvae of the diamondback moth (Plutella xylostella). After 4 days of storage at about 25° C., the effect of the preparation on the larvae (mortality) was determined. The following examples were active: Nos. 27, 28, 45.

[5] = test system: eggs of the American tobacco budworm (Heliothis virescens); experiment: Example C: eggs of American tobacco budworm, Petri dish with culture medium; conditions: 500 ppm or less; eggs dipped 5 seconds, 200 μl on culture medium; after 6 days
Description: as §1
A Petri dish whose bottom was covered with filter paper and which contained about 5 ml of culture medium was prepared. Pieces of filter paper with about 30, one-day-old eggs of the American tobacco budworm (Heliothis virescens) were dipped for 5 seconds into an aqueous solution of the formulated preparation to be examined and subsequently placed in a Petri dish. A further 200 μl of the aqueous solution were spread over the culture medium. The Petri dish was closed and then stored at about 25° C. in a climatized chamber. After 6 days of storage, the effect of the preparation on the eggs and any larvae which may have hatched from these (mortality) was determined. The following examples were active: Nos. 6, 27, 28, 29, 31, 35, 39, 43, 45, 59, 97, 226, 227, 228, 229, 351, 356, 357, 592, 593, 595, 949, 1001, 1126, 1129, 1132.

CC(=NO)c1cc(OCC=C(Cl)Cl)cc(Cl)c1OCCCOc1ccc(C(F)(F)F)cn1 [compound 28]
active: effect of the preparation on the larvae (mortality) [1] | effect of the preparation on the larvae (mortality) [2] | effect of the preparation on the larvae (mortality) [3] | effect of the preparation on the larvae (mortality) [4] | effect of the preparation on the eggs and any larvae hatched (mortality) [5]
